Patent US12447153B2, “HER2 mutation inhibitors” (Array BioPharma Inc., priority 2021, dated 2025)

Assays:
ErbB2 WT = ErbB2 WT (Homo sapiens (Human), UniProt P04626); assay: ErbB Enzyme Assay (HTRF KinEASE-TK), Assay 2; type: biochemical
EGFR = EGFR (Homo sapiens (Human), UniProt P00533); assay: ErbB Enzyme Assay (HTRF KinEASE-TK), Assay 3; type: biochemical
[1] = target: ErbB2 with Exon 20 YVMA insertion (HER2-YVMA) (Homo sapiens (Human), UniProt P04626, INS775YVMA); assay: Cellular Phosphorylation Assay, Assay 4 (constitutive ErbB2 phosphorylation, NIH 3T3 cells); type: cell-based
EGFR wild type (EGFR WT) = EGFR wild type (EGFR WT) (Homo sapiens (Human), UniProt P00533); assay: Cellular Phosphorylation Assay, Assay 5 (EGF-stimulated EGFR phosphorylation, NIH 3T3 cells); type: cell-based
BCRP = BCRP (Homo sapiens (Human), UniProt Q9UNQ0); assay: BCRP MDCKII efflux assay (Assay 7); type: in vitro ADME; details: dog; efflux ratio Papp(B-A)/Papp(A-B), BCRP MDCKII cells; read-out: Assay 7 Pe Ratio
Protocol: Assay conditions included with and without the BCRP-specific inhibitor, KO143, at a concentration of 0.3 μM to ascertain the contribution of BCRP to the efflux value of the test compound.
Final organic concentration in the assay was 1%.

MDR1 (P-gp) = MDR1 (P-gp) (Homo sapiens (Human), UniProt P08183); assay: in vitro; details: pig, LLC-PK1
[2] = EGF-stimulated EGFR WT phosphorylation

Chain of BCRP (Q9UNQ0 whole entry): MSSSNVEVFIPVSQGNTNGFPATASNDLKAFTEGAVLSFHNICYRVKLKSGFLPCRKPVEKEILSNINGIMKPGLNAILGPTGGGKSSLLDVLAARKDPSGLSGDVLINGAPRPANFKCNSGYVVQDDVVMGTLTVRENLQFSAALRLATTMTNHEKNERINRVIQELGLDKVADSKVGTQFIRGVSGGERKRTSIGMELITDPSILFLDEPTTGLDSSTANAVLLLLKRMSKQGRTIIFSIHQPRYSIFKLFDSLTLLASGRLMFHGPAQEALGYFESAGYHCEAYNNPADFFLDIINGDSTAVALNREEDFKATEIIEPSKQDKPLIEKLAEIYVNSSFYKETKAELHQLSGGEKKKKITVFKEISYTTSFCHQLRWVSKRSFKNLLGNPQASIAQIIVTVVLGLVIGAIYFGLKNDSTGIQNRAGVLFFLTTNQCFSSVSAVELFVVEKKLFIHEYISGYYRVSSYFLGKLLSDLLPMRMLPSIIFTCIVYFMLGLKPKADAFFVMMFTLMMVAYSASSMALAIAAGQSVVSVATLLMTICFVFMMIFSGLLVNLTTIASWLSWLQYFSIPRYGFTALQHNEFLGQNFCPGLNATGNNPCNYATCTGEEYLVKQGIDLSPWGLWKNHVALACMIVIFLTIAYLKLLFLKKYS
Chain of ErbB2 with Exon 20 YVMA insertion (HER2-YVMA) (P04626 other isoform, or with tags, fused parts or gaps ins YVMA behind 775): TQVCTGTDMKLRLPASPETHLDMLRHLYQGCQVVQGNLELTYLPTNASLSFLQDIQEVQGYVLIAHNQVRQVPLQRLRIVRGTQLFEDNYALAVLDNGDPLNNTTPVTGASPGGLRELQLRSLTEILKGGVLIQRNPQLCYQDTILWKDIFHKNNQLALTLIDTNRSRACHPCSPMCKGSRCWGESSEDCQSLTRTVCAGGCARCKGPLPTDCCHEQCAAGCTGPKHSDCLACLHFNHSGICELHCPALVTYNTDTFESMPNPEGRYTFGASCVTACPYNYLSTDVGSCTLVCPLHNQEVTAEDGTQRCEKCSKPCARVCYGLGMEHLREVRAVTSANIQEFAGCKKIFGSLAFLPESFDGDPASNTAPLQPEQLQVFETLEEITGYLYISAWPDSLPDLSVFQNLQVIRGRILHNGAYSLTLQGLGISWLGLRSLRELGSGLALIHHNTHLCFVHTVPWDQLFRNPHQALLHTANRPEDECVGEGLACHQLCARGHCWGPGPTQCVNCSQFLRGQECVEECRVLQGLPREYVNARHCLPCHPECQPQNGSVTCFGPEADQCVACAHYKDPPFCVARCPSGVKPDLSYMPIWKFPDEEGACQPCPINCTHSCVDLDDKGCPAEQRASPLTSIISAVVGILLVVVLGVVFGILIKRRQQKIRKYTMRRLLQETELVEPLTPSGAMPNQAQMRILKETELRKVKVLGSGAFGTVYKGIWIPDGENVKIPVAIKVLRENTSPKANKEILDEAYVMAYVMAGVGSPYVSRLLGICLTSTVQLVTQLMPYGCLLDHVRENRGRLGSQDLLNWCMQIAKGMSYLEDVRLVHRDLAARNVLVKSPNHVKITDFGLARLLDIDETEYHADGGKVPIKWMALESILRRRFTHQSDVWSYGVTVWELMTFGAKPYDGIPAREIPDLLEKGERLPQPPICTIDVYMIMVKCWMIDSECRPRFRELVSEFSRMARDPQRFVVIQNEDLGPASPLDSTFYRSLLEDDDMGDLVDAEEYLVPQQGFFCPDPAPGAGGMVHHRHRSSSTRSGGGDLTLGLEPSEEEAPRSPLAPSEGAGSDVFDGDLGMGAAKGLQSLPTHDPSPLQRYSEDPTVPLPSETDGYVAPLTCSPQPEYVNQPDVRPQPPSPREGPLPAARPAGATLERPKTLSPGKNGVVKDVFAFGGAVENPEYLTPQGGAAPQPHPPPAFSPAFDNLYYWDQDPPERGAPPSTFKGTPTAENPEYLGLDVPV
Chain of EGFR wild type (EGFR WT) (P00533 25-1210): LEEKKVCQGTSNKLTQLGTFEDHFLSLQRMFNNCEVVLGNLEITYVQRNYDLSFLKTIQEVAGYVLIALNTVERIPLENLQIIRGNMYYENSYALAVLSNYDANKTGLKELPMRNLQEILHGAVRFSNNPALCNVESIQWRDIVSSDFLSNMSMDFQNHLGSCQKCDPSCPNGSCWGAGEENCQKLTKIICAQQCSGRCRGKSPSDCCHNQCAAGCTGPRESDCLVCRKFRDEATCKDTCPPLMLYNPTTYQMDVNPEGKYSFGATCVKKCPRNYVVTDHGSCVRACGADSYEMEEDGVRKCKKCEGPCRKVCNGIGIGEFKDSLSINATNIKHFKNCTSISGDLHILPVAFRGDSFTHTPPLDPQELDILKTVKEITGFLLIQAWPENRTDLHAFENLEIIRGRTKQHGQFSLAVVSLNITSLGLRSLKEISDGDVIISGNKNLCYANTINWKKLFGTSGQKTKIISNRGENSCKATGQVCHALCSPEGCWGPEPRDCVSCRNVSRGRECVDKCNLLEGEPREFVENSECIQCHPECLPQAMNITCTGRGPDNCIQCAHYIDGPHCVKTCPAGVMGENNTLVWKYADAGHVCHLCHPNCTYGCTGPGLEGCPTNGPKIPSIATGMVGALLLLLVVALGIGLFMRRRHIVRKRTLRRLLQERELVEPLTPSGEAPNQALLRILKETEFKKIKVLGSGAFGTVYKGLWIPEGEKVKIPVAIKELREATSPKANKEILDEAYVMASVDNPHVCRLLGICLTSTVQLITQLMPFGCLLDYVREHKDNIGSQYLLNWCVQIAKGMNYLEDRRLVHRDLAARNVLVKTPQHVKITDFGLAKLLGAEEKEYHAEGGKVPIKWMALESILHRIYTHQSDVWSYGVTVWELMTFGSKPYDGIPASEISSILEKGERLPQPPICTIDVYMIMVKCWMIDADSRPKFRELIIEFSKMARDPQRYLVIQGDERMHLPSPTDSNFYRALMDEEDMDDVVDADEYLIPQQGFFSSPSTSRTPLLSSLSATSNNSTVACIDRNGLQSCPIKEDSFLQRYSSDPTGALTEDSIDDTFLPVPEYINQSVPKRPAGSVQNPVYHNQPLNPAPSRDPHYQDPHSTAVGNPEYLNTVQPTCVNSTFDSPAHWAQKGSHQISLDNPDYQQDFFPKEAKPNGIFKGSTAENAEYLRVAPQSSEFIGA
Chain of EGFR (P00533 25-1210): as above

IC50 (ErbB2 WT; ErbB2 WT enzyme) | IC50 (EGFR; EGFR enzyme) | IC50 ([1]; ErbB2 YVMA phosphorylation) | IC50 (EGFR wild type (EGFR WT); [2]) | efflux ratio at 2 h, 1 µM (BCRP) | efflux ratio at 2 h, 1 µM (MDR1 (P-gp)) | IC50 (ErbB2 WT; ErbB2 WT enzyme assay) | IC50 (EGFR; EGFR enzyme assay) | IC50 ([1]; cellular ErbB2 YVMA phosphorylation) | IC50 (EGFR wild type (EGFR WT); cellular EGFR WT phosphorylation, EGF-stimulated) | SMILES
5.9 nM | 410 nM | 15.3 nM | 582 nM | 1.4 | 6.4 |  |  |  |  | C=CC(=O)N1CCCC[C@@H](c2ccc3ncnc(Nc4ccc(Oc5ccc6c(c5)ncn6C)c(C)c4F)c3n2)C1 (racemic) [Example 145, rac-(R)-1-(3-(4-((2-fluoro-3-methyl-4-((1-methyl-1H-benzo[d]imidazol-5-yl)oxy)phenyl)amino)pyrido[3,2-d]pyrimidin-6-yl)azepan-1-yl)prop-2-en-1-one]
18.6 nM | 782 nM | 23 nM | 2590 nM | 2.3 | 2.9 |  |  |  |  | C=CC(=O)N1CCC[C@@H](c2ccc3ncnc(Nc4ccc(Oc5ccc6c(c5)ncn6C)c(C)c4F)c3n2)CC1 (racemic) [Example 147, rac-(R)-1-(4-(4-((2-fluoro-3-methy-4-((1-methyl-1H-benzo[d]imidazol-5-yl)oxy)phenyl)amino)pyrido[3,2-d]pyrimidin-6-yl)azepan-1-yl)prop-2-en-1-one]
17.4 nM | 483 nM | 22.3 nM | 942 nM | 3.2 | 0.6 |  |  |  |  | C=CC(=O)N1C[C@@H]2C[C@H]1C[C@H]2c1ccc2ncnc(Nc3ccc(Oc4ccn5ncnc5c4)c(C)c3F)c2n1 (racemic) [Example 199, rac-1-((1 S,4R,5R)-5-(4-((4-([1,2,4]triazolo[1,5-a]pyridin-7-yloxy)-2-fluoro-3-methylphenyl)amino)pyrido[3,2-d]pyrimidin-6-yl)-2-azabicyclo[2.2.1]heptan-2-yl)prop-2-en-1-one]
15.5 nM | 550 nM | 20.6 nM | 4220 nM | 2.8 | 1.2 |  |  |  |  | C=CC(=O)N1C[C@H]2C[C@@H]1[C@H](c1ccc3ncnc(Nc4ccc(Oc5ccc6c(c5)ncn6C)c(C)c4F)c3n1)C2 (racemic) [Example 202, rac-1-((1R,4R,6R)-6-(4-((2-fluoro-3-methyl-4-((1-methyl-1H-benzo[d]imidazol-5-yl)oxy)phenyl)amino)pyrido[3,2-d]pyrimidin-6-yl)-2-azabicyclo[2.2.1]heptan-2-yl)prop-2-en-1-one]
58.7 nM | 2420 nM | 24 nM | 2560 nM | 4.5 | 1.2 |  |  |  |  | C=CC(=O)N1CC[C@H]2C[C@H](c3ccc4ncnc(Nc5cc(C)c(Oc6ccn7ncnc7c6)cc5F)c4n3)C[C@H]21 (racemic) [Example 205, rac-1-((3aR,5S,6aR)-5-(4-((4-([1,2,4]triazolo[1,5-a]pyridin-7-yloxy)-2-fluoro-5-methylphenyl)amino)pyrido[3,2-d]pyrimidin-6-yl)hexahydrocyclopenta[b]pyrrol-1(2H)-yl)prop-2-en-1-one]
18.8 nM | 1460 nM | 11.1 nM | 1850 nM | 1.9 | 0.8 |  |  |  |  | C=CC(=O)N1C[C@H]2CC[C@@H]1C[C@@H]2c1ccc2ncnc(Nc3ccc(Oc4ccn5ncnc5c4)c(C)c3F)c2n1 (racemic) [Example 217, rac-1-((1R,4S,5S)-5-(4-((4-([1,2,4]triazolo[1,5-a]pyridin-7-yloxy)-2-fluoro-3-methylphenyl)amino)pyrido[3,2-d]pyrimidin-6-yl)-2-azabicyclo[2.2.2]octan-2-yl)prop-2-en-1-one]
24.4 nM | 1420 nM | 32.7 nM | ≥ 5000 nM | 2.6 | 1.4 |  |  |  |  | C=CC(=O)N1C[C@H]2CC[C@@H]1C[C@H]2c1ccc2ncnc(Nc3ccc(Oc4ccn5ncnc5c4)c(C)c3F)c2n1 (racemic) [Example 218, rac-1-((1R,4S,5R)-5-(4-((4-([1,2,4]triazolo[1,5-a]pyridin-7-yloxy)-2-fluoro-3-methylphenyl)amino)pyrido[3,2-d]pyrimidin-6-yl)-2-azabicyclo[2.2.2]octan-2-yl)prop-2-en-1-one]
 |  |  |  | 3.5 | 1.3 | 8.2 nM | 712 nM | 17.4 nM | 1450 nM | C=CC(=O)N1C[C@H](c2ccc3ncnc(Nc4ccc(Oc5ccn6ncnc6c5)c(C)c4F)c3n2)C[C@@H]1C1CC1 (racemic) [Example 302]
26.5 nM | 422 nM | 8.4 nM | 768 nM | 2 | 1.2 |  |  |  |  | C=CC(=O)N1CC[C@@H]2C[C@H](c3ccc4ncnc(Nc5cc(C)c(Oc6ccn7ncnc7c6)cc5F)c4n3)C[C@@H]21 (single isomer, unassigned) [Example 225]
33.6 nM | 4430 nM | 12.5 nM | 1010 nM | 7.3 | 11.4 |  |  |  |  | C=CC(=O)N1CCC(Oc2ccc3ncnc(Nc4ccc(Oc5ccn6ncnc6c5)c(C)c4)c3n2)CC1 [Example 1, 1-(4-((4-((4-([1,2,4]triazolo[1,5-a]pyridin-7-yloxy)-3-methylphenyl)amino)pyrido[3,2-d]pyrimidin-6-yl)oxy)piperidin-1-yl)prop-2-en-1-one]
260 nM | ≥ 10000 nM | 60.6 nM | ≥ 5000 nM | 1.5 | 2 |  |  |  |  | C=CC(=O)N1CCC(Oc2ccc3ncnc(Nc4ccc(Oc5ccc6cn(C)nc6c5)c(C)c4)c3n2)CC1 [Example 3, 1-(4-((4-((3-methyl-4-((2-methyl-2H-indazol-6-yl)oxy)phenyl)amino)pyrido[3,2-d]pyrimidin-6-yl)oxy)piperidin-1-yl)prop-2-en-1-one]
3300 nM | ≥ 10000 nM | 54.2 nM | 2920 nM | 2.5 | 1.3 |  |  |  |  | C=CC(=O)N1CCC(Oc2ccc3ncnc(Nc4ccc(Oc5ccc6cn(C)nc6c5)c(C)c4F)c3n2)CC1 [Example 6, 1-(4-((4-((2-fluoro-3-methyl-4-((2-methyl-2H-indazol-6-yl)oxy)phenyl)amino)pyrido[3,2-d]pyrimidin-6-yl)oxy)piperidin-1-yl)prop-2-en-1-one]
977 nM | ≥ 10000 nM | 66 nM | 840 nM | 2.4 | 1.7 |  |  |  |  | C=CC(=O)N1CCC(Oc2ccc3ncnc(Nc4ccc(Oc5ccc6cn(C)nc6c5)c(Cl)c4F)c3n2)CC1 [Example 9, 1-(4-((4-((3-chloro-2-fluoro-4-((2-methyl-2H-indazol-6-yl)oxy)phenyl)amino)pyrido[3,2-d]pyrimidin-6-yl)oxy)piperidin-1-yl)prop-2-en-1-one]

SMILES | IC50 (ErbB2 WT; ErbB2 WT enzyme) | IC50 (EGFR; EGFR enzyme) | IC50 ([1]; ErbB2 YVMA phosphorylation) | IC50 (EGFR wild type (EGFR WT); [2]) | efflux ratio at 2 h, 1 µM (BCRP) | efflux ratio at 2 h, 1 µM (MDR1 (P-gp)) | IC50 (ErbB2 WT; ErbB2 WT enzyme assay) | IC50 (EGFR; EGFR enzyme assay) | IC50 ([1]; cellular ErbB2 YVMA phosphorylation) | IC50 (EGFR wild type (EGFR WT); cellular EGFR WT phosphorylation, EGF-stimulated)
C=CC(=O)N1[C@@H]2CC[C@H]1[C@H](c1ccc3ncnc(Nc4ccc(Oc5ccn6ncnc6c5)c(C)c4F)c3n1)C2 (racemic) [Example 213, rac-1-((1 S,2R,4R)-2-(4-((4-([1,2,4]triazolo[1,5-a]pyridin-7-yloxy)-2-fluoro-3-methylphenyl)amino)pyrido[3,2-d]pyrimidin-6-yl)-7-azabicyclo[2.2.1]heptan-7-yl)prop-2-en-1-one] | 7.3 nM | 264 nM | 23.9 nM | ≥ 5000 nM | 3.4 | 1.5 |  |  |  | 
C=CC(=O)N1[C@@H]2CC[C@H]1[C@H](c1ccc3ncnc(Nc4ccc(Oc5ccn6ncnc6c5)c(C)c4)c3n1)C2 (racemic) [Example 220, rac-1-((1 S,2R,4R)-2-(4-((4-([1,2,4]triazolo[1,5-a]pyridin-7-yloxy)-3-methylphenyl)amino)pyrido[3,2-d]pyrimidin-6-yl)-7-azabicyclo[2.2.1]heptan-7-yl)prop-2-en-1-one] | 17.9 nM | 412 nM | 18.5 nM | ≥ 5000 nM | 2.2 | 1.3 |  |  |  | 
C=CC(=O)N1CC[C@@H](c2ccc3ncnc(Nc4ccc(Oc5ccn6ncnc6c5)c(C)c4F)c3n2)CC12CC2 (single isomer, unassigned) [Example 173] | 105 nM | ≥ 10000 nM | 21 nM | 2310 nM | 3 | 0.7 |  |  |  | 
C=CC(=O)N1[C@@H]2CC[C@H]1[C@H](c1ccc3ncnc(Nc4ccc(Oc5ccn6ncnc6c5)c(C)c4F)c3n1)C2 (single isomer, unassigned) [Example 228] | 130 nM | 4550 nM | 33.6 nM | ≥ 5000 nM | 3.3 | 0.8 |  |  |  | 
C=CC(=O)N1[C@H]2CC[C@@H]1[C@@H](c1ccc3ncnc(Nc4ccc(Oc5ccn6ncnc6c5)c(C)c4F)c3n1)C2 (single isomer, unassigned) [Example 229] | 16.7 nM | 380 nM | 29.9 nM | ≥ 5000 nM | 3 | 0.7 |  |  |  | 
C=CC(=O)N1[C@@H]2CC[C@H]1C(c1ccc3ncnc(Nc4ccc(Oc5ccn6ncnc6c5)c(C)c4)c3n1)C2 (single isomer, unassigned) [Example 232] | 10.5 nM | 203 nM | 31.9 nM | ≥ 5000 nM | 2.6 | 0.8 |  |  |  | 
